In patent publication US20240041878A1, “APELIN RECEPTOR MODULATORS FOR TREATMENT OF A DISORDER OR DISEASE ASSOCIATED WITH BBB PERMEABILITY” (BioAge Labs, Inc., priority 2022, published 2024):

How the values were obtained:
[1] = test system: Mouse primary astrocytes; assay: Astrocyte glutamate uptake; format: cell-based; settings: RAC+BGE-105 [10 nM, 50 nM, 250 nM] versus RAC
Method: To stimulate astrocytes into a reactive state found in aging and neurodegenerative diseases per previous publications (Liddelow et al., 2017; Barbar et al., 2020), a combination of the cytokines TNF-α and IL-1α, and complement factor C1q, were added at 30 ng/mL, 3 ng/mL, and 400 ng/mL, respectively, into astrocyte culture media to make 'reactive astrocyte cocktail' (RAC) media. […] Bachem, Cat. #4029110), BAY-11-7082 (50 μM; Abcam, Cat. #ab141228) or equal volume of vehicle (0.01% DMSO in PBS) (hereafter referred to as 'RAC treatment'). […] Fresh HBSS was added to each well and 100 μM glutamate (Sigma, Cat. #G1251) was added to each well. Empty wells not containing cells were filled with HBSS and 100 μM [NT] negative control. Cells were incubated at room temperature for 3 hours before HBSS was collected and glutamate concentration determined by colorimetric assay (Sigma, Cat. #MAK004). Relative change in glutamate uptake was calculated compared to negative control wells.

[2] = test system: aged mice with TBI; assay: Traumatic brain injury (TBI) model in aged mice, controlled cortical impact; format: in vivo, mouse; settings: given orally before and/or after controlled cortical impact
Text: This study assessed the effects of BGE-105 on mitigating the effects of CNS damage and inflammation, and accelerating functional recovery, in a mouse model of TBI.
BGE-105 is given orally to aged mice at various potential doses for a period of time before and/or after controlled cortical impact (model of TBI in mice); during the experimental period, mice undergo various behavioral assessments to understand whether BGE-105 treatment affected motor and cognitive functions known to be impaired by TBI. After, the brains of mice are analyzed for neuroinflammatory markers by a variety of histological and biochemical methods

[3] = test system: SOD1^G93A mice; assay: ICV administration in SOD1^G93A mouse model of ALS; format: in vivo; settings: ICV via Alzet minipumps, 1 month
Method: The study accesses the effects of BGE-105 in a mouse model of ALS. The study establishes pharmacokinetic/pharmacodynamic features of intracerebroventricular (ICV) administration of BGE-105 in wildtype C57BL/6J mice. Multiple doses across multiple timepoints are tested to determine drug characteristics within the central nervous system (CNS). BGE-105 is administered to SOD1^G93A mice using Alzet minipumps connected to ICV cannulas.
Astrocyte reactivity, driven by IL-la/TNFα/C1q-mediated neurotoxicity, contributes to spinal cord motor neuron death and motor dysfunction in mouse models of ALS. […] This study first validates intraventricular administration of BGE-105 into wildtype mice to establish CNS-specific drug properties and guide optimal dose selection. Next, the efficacy of CNS delivery of BGE-105 to minimize motor neuron death, improve motor function, and extend lifespan in the SOD1^G93A mouse model of ALS is tested. For experiments in vivo, BGE-105 are administered to SOD1^G93A mice using Alzet minipumps. Alzet minipumps are implanted at 4 months of age, followed by 1 month of continuous administration of BGE-105.
Analyses of motoric, behavioral, and survival endpoints are measured. Brain, spinal cord, and skeletal muscle are dissected post mortem for histochemical and transcriptomic analyses to determine target engagement and mechanisms of action.
Alzet minipumps connected to intraventricular cannulas are utilized for continuous CNS delivery of BGE-105, akin to previous studies on APJ agonism in the CNS (Zhu et al., 2020. Apelin-36 mediates neuroprotective effects by regulating oxidative stress, autophagy and apoptosis in MPTP-induced Parkinson's disease model mice, Brain Research, Volume 1726, 2020, 146493, ISSN 0006-8993). 4-month-old SOD1^G93A mice (C57BL/6J background; strain #004435, Jackson Laboratory) of both sexes (n=12/group; 6 male, 6 female) are randomized into vehicle or two separate treatment groups before undergoing baseline motor behavior assessments including the open field, grid hang, beam walk, and accelerating rotarod. […]

[4] = test system: human patient, iPSC-derived neurons; assay: Neurons from patient derived induced pluripotent stem cells (iPSCs); format: cell-based; settings: compared to cells not treated with BGE-105
Text: This study assesses the effect of BGE-105 (or media from other brain cells exposed to BGE-105, such as microglia and astrocytes) in human patient, iPSC-derived neurons improves a variety of functions associated with beneficial neuronal outcomes, including those listed below • i. proliferation and survival • ii. Autophagy • iii. synaptic plasticity • iv. ROS production

[5] = test system: Mouse astrocyte cells; assay: Astrocyte gene expression (RT-PCR) after reactive astrocyte cocktail (RAC); format: cell-based
Method: Mouse astrocyte cells were seeded on 24-well plates at a low density of approximately 20 k astrocytes per well. To stimulate astrocytes into a reactive state found in aging and neurodegenerative diseases per previous publications (Liddelow et al., 2017; Barbar et al., 2020), a combination of the cytokines TNF-α and IL-1α, and complement factor C1q, were added at 30 ng/mL, 3 ng/mL, and 400 ng/mL, respectively, into astrocyte culture media to make 'reactive astrocyte cocktail' (RAC) media. […] Bachem, Cat. #4029110), BAY-11-7082 (50 μM; Abcam, Cat. #ab141228) or equal volume of vehicle (0.01% DMSO in PBS) (hereafter referred to as 'RAC treatment'). Cells in Groups 3-6 were treated with RAC for 24 hours, with or without the test compounds (n=4 per group). • Group 1: Control [CON] • Group 2: CON+BGE-105 (50 nM) [CON+105] • Group 3: Reactive control treated with RAC only [RAC] • Group 4: RAC+BGE-105 (50 nM) [RAC+105] • Group 5: RAC+Pyrm-Apelin-13 (50 nM) • Group 6: RAC+BAY-11-7082 (NF-κB inhibitor; 50 μM) [RAC+BAY] Media from each tested cell group was collected for cytokine release analysis. Cells were lysed for RNA collection and RT-PCR was performed to synthesis cDNA under standard conditions. Next, transcriptome analysis was performed to determine the expression level of astrocyte genes or astrocyte responsive genes. Changes of expression was normalized to β-actin (FIGS. 8 and 9). Exemplary biomarkers include CCL2, CXCL10, CXCL11, CXCL1, CXCL2, CXCL3, CXCL8, EDN1, […]3, CIS, CTRL, C3, CFB, VEGF, and IL-6.

COc1cccc(OC)c1-n1c(NS(=O)(=O)[C@@H](C)[C@H](C)c2ncc(C)cn2)nnc1-c1cncc(C)c1 [BGE-105, (2S,3R)—N-(4-(2,6-dimethoxyphenyl)-5-(5-methyl-3-pyridinyl)-4H-1,2,4-triazol-3-yl)-3-(5-methyl-2-pyrimidinyl)-2-butanesulfonamide]
percentage of glutamate uptake in RAC astrocytes [1]: significantly and statistically increased | neuroinflammatory markers and neuro-inflammation [2]: decrease of neuroinflammatory markers | lifespan [3]: extends lifespan | motor function [3]: improves motor function | motor neuron death [3]: minimizes motor neuron death | survival, differentiation and cellular functioning of stem-cell-derived neurons [4]: improves overall survival, differentiation, and cellular functioning | expression of biomarkers CXCL1, C3 and IL-6 in control astrocytes ([5]; CON+105, BGE-105 50 nM, no RAC): no or minimal impact | reduction of IL-6 gene expression in RAC-induced reactive astrocytes ([5]; RAC+105 (50 nM) versus RAC, 24 hours, p<0.0001): 5-10 fold | reduction of C3 gene expression in RAC-induced reactive astrocytes ([5]; RAC+105 (50 nM) versus RAC, 24 hours, p=0.0015): 10-20 fold | CXCL1 gene expression in RAC-induced reactive astrocytes ([5]; RAC+105 (50 nM) versus RAC, 24 hours, p=0.0204): significantly reduced
